Where two headings read alike, the source gives them in different places.
Tests used:
[1] = Stability and solubility properties of the substance; type: physicochemical
[2] = Maximum plasma concentration immediately after i.v. administration in adult human; type: in vivo, adult human (male); conditions: 0.15 mg/kg i.v. for 20 minutes, hydrochloride, 6 persons
Protocol: (§1) Method: Three groups including a group with 0 mg/kg of the compound (A) being administered (placebo group: 8 persons), a group with 0.05 mg/kg of the compound (A) being administered (6 persons), and a group with 0.15 mg/kg of the compound (A) being administered (6 persons) were made. The hydrochloride of the compound (A) was dissolved in physiological saline and intravenously administered at a rate of 2.5 mL/min for 20 minutes. The urine volume from a time immediately after administration to a time after 8 hours of administration and the maximum plasma concentration immediately after administration were measured.

human renal function = assay: Action on human renal function: 8-hour urine volume after i.v. administration, double-blinded; type: in vivo, adult human (male); conditions: for total urine volume from 0 to 8 hours after administration: hydrochloride, 6 persons, placebo 459.8 (±184.1)
Protocol: After an adult was caused to completely urinate before administration of the compound (A), the compound (A) was administered to the adult. The study was performed in a double-blinded manner.
as §1

[3] = test system: ischemia/reperfusion injury in kidneys; assay: Rat kidney ischemia/reperfusion injury model (renal arteries clamped 45 minutes, then reperfusion); type: in vivo, SD rats; conditions: 48 hours after administration; hydrochloride, 6 mg/kg in total; n=6; placebo 6.07±0.36; before administration 0.27±0.01
Protocol: Method: Eleven 8-week-old male SD rats were used and laparotomized under anesthesia, the renal artery of the left kidney, and then after 1 minute, that of the right kidney were clamped using a non-traumatic clip for 45 minutes, and then reperfusion was performed.
The hydrochloride of the first optical isomer component (compound (A)) of the formula [IV] of the present invention was dissolved in physiological saline, and 4 mg/kg (before ischemia) and 2 mg/kg (before and after reperfusion) of the compound (A) (6 mg/kg in total) were administered for 10 minutes before ischemia and before and after reperfusion, respectively. On the other hand, the placebo group was subjected to the same procedure as in the compound (A)—administration group in every way except that only physiological saline was administered instead of physiological saline solution of the hydrochloride of the compound (A). […]
For calculation of a creatinine clearance value, the total urine of during 60 minutes before administration and during 0 to 8, 8 to 24, and 24 to 48 hours after administration were collected in each rat, and the urine volume and the value of creatinine in urine were measured. Further, a blood sample was obtained before administration and after 4, 8, 24, and 48 hours of administration and serum creatinine values were measured over time. […]

[4] = test system: dog with complete atrioventricular block; assay: Torsades de Pointes in dog with complete atrioventricular block; type: in vivo; conditions: dose not given
dog renal function = assay: Action on dog renal function, anesthetized beagle, ureter cannulation, cumulative i.v. doses; type: in vivo
Protocol: Method: 5 mg/kg of ketamine hydrochloride (KETALAR FOR INTRAMUSCULAR INJECTION 500 mg, 50 mg/mL, DAIICHI SANKYO COMPANY, LIMITED) was intramuscularly administered to a 10 to 12 kg beagle dog (n=4) as a preanesthetic administration, and then anesthesia was performed by inhale of isoflurane. After intratracheal intubation, isoflurane was inhaled in a range of 1 to 5%, artificial ventilation was carried out, and a tracheal tube was intubated and mounted on a ventilator. The examinations were performed under the ventilation conditions of 10 to 25 mL/kg/stroke and 10 to 20 stroke/min. The lower abdomen was incised, the dog was cannulated in the ureters at the both sides, and urine was continually collected. After the urination became constant, the compound (A) as the first optical isomer component which had been obtained in Example 2 was dissolved in physiological saline, and cumulative doses of 0.1 mg/kg, 0.3 mg/kg, 1 mg/kg, and 3 mg/kg of Compound (A) were administered through the leg veins for 20 minutes each.
A blood sample was obtained before the start of administration of the compound [IV] and every 20 minutes after completion of administration beginning at a time immediately after completion of administration (0 minutes), and changes in urine volume from the ureters at the both sides, Na in urine, K in urine, and a serum creatinine value were examined every 20 minutes.

[5] = test system: dog with complete atrioventricular block; conditions: 1.2 mg/kg body weight; Non-Patent Document 3; cited from earlier work

## COc1ccc2c(c1)CN(C(=O)CCN1CCC(Cc3ccccc3)CC1)CC[S+]2[O-] (stereo not drawn) [oxalate of the compound [Ia]] [4-[3-(4-benzylpiperidin-1-yl)propionyl]-7-methoxy-2,3,4,5-tetrahydro-1,4-benzothiazepine-1-oxide]
[1]
  solubility: soluble in water, ethanol, and dimethyl sulfoxide

## COc1ccc2c(c1)CN(C(=O)CCN1CCC(Cc3ccccc3)CC1)CC[S+]2[O-] (single isomer, unassigned) [compound (A), 4-[3-(4-benzylpiperidin-1-yl)propionyl]-7-methoxy-2,3,4,5-tetrahydro-1,4-benzothiazepine-1-oxide]
[2]
  blood concentration immediately after administration: 349.3 ± 93.7 ng/mL
Human renal function; 0.05 mg/kg i.v. for 20 minutes
  total urine volume from 0 to 8 hours after administration: 545.2 (±362.1) mL
Human renal function; 0.05 mg/kg i.v., 0 to 8 hours
  increase in urine volume as compared to the placebo group (significance): significant (p<0.05) increase in urine volume was not recognized
Human renal function; 0.15 mg/kg i.v. for 20 minutes
  total urine volume from 0 to 8 hours after administration: 914.2 (±431.0) mL
Human renal function; 0.15 mg/kg i.v., 0 to 8 hours
  increase in urine volume as compared to the placebo group (significance): significant (p<0.05) increase
  urine volume relative to that of the placebo group: approximately two times
[3]
  serum creatinine value: 3.02 ± 0.82 mg/dL
[4]
  occurrence of Torsades de Pointes: does not cause Torsades de Pointes
[1]
  solubility: water-soluble
Dog renal function; after 1 mg/kg and 3 mg/kg i.v. (cumulative doses), n=4, FIG. 5
  excretion amount of sodium (amount of urinary sodium) vs control: significant increase
Dog renal function; after 1 mg/kg and 3 mg/kg i.v. (cumulative doses), n=4, FIG. 6
  excretion amount of potassium (amount of urinary potassium) vs control: significant increase
Dog renal function; after 1 mg/kg and 3 mg/kg i.v. (cumulative doses), n=4, FIG. 7
  serum creatinine value vs control: significant decrease
Dog renal function; after 1 mg/kg and 3 mg/kg i.v. (cumulative doses, 20 minutes each), n=4, paired t, FIG. 4
  urine volume vs control: significant increase

## COc1ccc2c(c1)CN(C(=O)CCN1CCC(Cc3ccccc3)CC1)CCS2 [JTV519, 4-[3-(4-benzylpiperidin-1-yl)propionyl]-7-methoxy-2,3,4,5-tetrahydro-1,4-benzothiazepine]
[5]
  occurrence of Torsades de Pointes: Torsades de Pointes that is life-threatening arrhythmia occurs

## COc1ccc2c(c1)CN(C(=O)CCN1CCC(Cc3ccccc3)CC1)CC[S+]2[O-] (stereo not drawn) [compound having the above formula [Ia]] [4-[3-(4-benzylpiperidin-1-yl)propionyl]-7-methoxy-2,3,4,5-tetrahydro-1,4-benzothiazepine-1-oxide]
[1]
  solubility: easily dissolved in ethanol and dimethyl sulfoxide (DMSO)
[1]; room temperature
  stability: stable to oxygen, humidity, acid, and alkali
Skin irritating property
  skin irritating property: has a skin irritating property

Source: patent US11844803B2, “Renal dysfunction improving drug comprising optical isomer of 1,4-benzothiazepine-1-oxide derivative” (AETAS PHARMA CO., LTD., priority 2017, dated 2023)
